Measured values from publication PMC4268911 (International Journal of Nanomedicine, 2014).

How the values were obtained:
MDAMB 231 cells = assay: In vitro cytotoxicity of conjugate, MTS-based assay; format: cell-based, human; details: MDAMB 231, 0–200 μg mL−1 polymer, 24 hours
MCF-7 cells = assay: as above; format: cell-based, human; details: MCF-7, 0–200 μg mL−1 polymer, 24 hours

With Low-molecular-weight heparin [LMWH] the “cytotoxicity (cell viability)” value (MDAMB 231 cells) was “no severe in vitro cytotoxicity” and the “cytotoxicity (cell viability)” value (MCF-7 cells) was “no severe in vitro cytotoxicity”.
